Measured values as given in ChEMBL document CHEMBL1123163, “Absolute configuration of (-)-5-benzoyl-1,2-dihydro-3H-pyrrolo[1,2-alpha]pyrrole-1-carboxylic acid, the active enantiomer of ketorolac” (1986).

Legend:
[1] = test system: Rattus norvegicus; experiment: Antiinflammatory activity using carrageenan rat paw edema assay along with 15 mg/kg of phenylbutazone; type: functional
[2] = test system: Mus musculus; experiment: Analgesic activity using mouse phenylquinone writhing assay along with 70 mg/kg of aspirin; type: functional

SMILES	ED50 [1] [mg/kg]	ED50 [2] [mg/kg]
O=C(O)C1CCN2C(C(=O)c3ccccc3)CCC12 (racemic)	96	399
O=C(c1ccccc1)C1CCC2[C@H](C(=O)O)CCN12 (stereo partly specified)	3	< 3
O=C(c1ccccc1)C1CCC2[C@@H](C(=O)O)CCN12 (stereo partly specified)	170	699
